Results published in patent USRE49128E1, “Hydroxyl purine compounds and applications thereof” (GUANGDONG RAYNOVENT BIOTECH CO., LTD., priority 2014, dated 2022).

Molecular target: T1, recombinant full-length PDE2A protein (Homo sapiens, UniProt O00408)
T1 construct: Expression of recombinant full-length PDE2A protein in insect Sf9 cells; GST (N); made in house; host or cells: insect Sf9 cells (baculovirus)
Test: Evaluation of PDE2 phosphodiesterase inhibitory activity in vitro (fluorescence polarization, Transcreener AMP2/GMP2)
Assay type: biochemical
Conditions: IC50 classes; substrate 1 μM cGMP; room temperature one hour
Procedure: Experimental objective: The substituted Alexa Fluor 633 fluorescent dye on the AMP/GMP antibodies was detected by the fluorescence polarization analysis to determine the concentration of AMP/GMP produced in the reaction system, which was used to calculate the IC50 values of the test compounds against PDE2 phosphodiesterase.
The measured buffer solution: 10 mM Tris-HCl, pH 7.5, 5 mM MgCl2, 0.01% Brij 35, 1 mM DTT, and 1% DMSO.
Enzyme: Expression of recombinant full-length PDE2A protein in insect Sf9 cells using N-terminal GST-tag with baculovirus.
Transcreener® AMP^2/GMP^2 antibody, AMP2/GMP2 AlexaFluor 633 fluorescent dye.
The enzyme solution was prepared using freshly prepared buffer solution, and then added to the reaction holes, the DMSO solutions of the test compounds were added by the Echo550 non-contact nanoliter acoustic pipetting system, and then pre-incubated at room temperature for 10 minutes, the reaction was initiated by the addition of the substrate (1 μM cGMP), and then reacted at room temperature for one hour. And then the detection system (Transcreener® AMP^2/GMP^2 antibody, AMP2/GMP2 AlexaFluor 633 fluorescent dye) was added, reacted at room temperature for 90 minutes, the fluorescence polarization was detected using Ex/Em 620/688.
The fluorescence polarization intensity was converted to nM concentration by AMP/GMP standard curve, The relative enzyme activity relative to DMSO blank was calculated, IC50 values and curves were calculated using Prism software packages (GraphPad Software, San Diego Calif., USA).

T1 sequence (O00408 whole entry, species assumed): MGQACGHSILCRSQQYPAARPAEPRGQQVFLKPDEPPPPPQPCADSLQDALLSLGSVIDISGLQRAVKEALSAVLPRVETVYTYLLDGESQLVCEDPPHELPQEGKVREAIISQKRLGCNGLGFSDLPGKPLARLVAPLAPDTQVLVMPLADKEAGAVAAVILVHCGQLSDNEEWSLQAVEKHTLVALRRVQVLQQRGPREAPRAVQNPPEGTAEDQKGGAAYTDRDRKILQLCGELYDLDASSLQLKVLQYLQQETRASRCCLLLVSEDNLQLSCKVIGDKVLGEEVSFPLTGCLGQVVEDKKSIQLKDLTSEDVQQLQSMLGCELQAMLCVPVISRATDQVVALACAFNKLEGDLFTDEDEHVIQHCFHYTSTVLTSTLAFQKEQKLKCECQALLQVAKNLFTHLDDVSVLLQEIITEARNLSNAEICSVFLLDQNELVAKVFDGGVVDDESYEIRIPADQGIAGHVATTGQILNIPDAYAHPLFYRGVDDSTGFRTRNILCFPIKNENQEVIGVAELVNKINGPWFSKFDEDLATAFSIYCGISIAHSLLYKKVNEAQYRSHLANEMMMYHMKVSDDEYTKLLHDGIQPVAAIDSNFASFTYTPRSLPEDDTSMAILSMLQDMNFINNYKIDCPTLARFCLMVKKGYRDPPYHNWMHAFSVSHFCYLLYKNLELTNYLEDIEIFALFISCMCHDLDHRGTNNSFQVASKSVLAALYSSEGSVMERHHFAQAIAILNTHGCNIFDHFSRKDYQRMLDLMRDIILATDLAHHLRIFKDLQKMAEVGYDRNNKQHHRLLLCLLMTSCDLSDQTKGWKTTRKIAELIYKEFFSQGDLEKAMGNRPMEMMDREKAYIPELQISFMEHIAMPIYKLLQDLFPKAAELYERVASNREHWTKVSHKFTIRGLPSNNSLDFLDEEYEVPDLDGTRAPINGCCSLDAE

Row | IC50 [µM] | Compound
1 | 1 to 10 | Cn1cnc2c1c(=O)n(CC1(C(C)(O)C(F)(F)F)CC1)c(=O)n2C (stereo not drawn) [Embodiment 4, 3,7-Dimethyl-1-((1-(1,1,1-trifluoro-2-hydroxypropan-2-yl)cyclopropyl)methyl)-1H-purine-2,6-(3H,7H)-dione]
2 | 10 to 50 | Cn1c(=O)n(CC2CCC(C)(O)CC2)c(=O)c2c1ncn2CC1CC1 (single isomer, unassigned) [Embodiment 51 isomer 1]
3 | 10 to 50 | Cn1cnc2c1c(=O)n(C[C@H]1CC[C@H](C(O)(C(F)(F)F)C(F)(F)F)CC1)c(=O)n2C [Embodiment 20, 3,7-Dimethyl-1-[trans-4-(2,2,2-trifluoro-1-hydroxy-1-trifluoromethyl-ethyl)cyclohexylmethyl]-3,7-dihydro-purine-2,6-dione]
4 | 1 to 10 | CCC(O)(CC)c1ccc(Cn2c(=O)c3c(ncn3C)n(C)c2=O)cc1 [Embodiment 25, 1-(4-(3-Hydroxypentan-3-yl)benzyl)-3,7-dimethyl-1H-purine-2,6(3H,7H)-dione]
5 | 10 to 50 | Cn1cnc2c1c(=O)n(Cc1cccc(C(C)(O)C(F)(F)F)c1)c(=O)n2C (stereo not drawn) [Embodiment 26, 3,7-dimethyl-1-(3-(1,1,1-trifluoro-2-hydroxypropan-2-yl)benzyl)-1H-purine-2,6-(3H,7H)-dione]
6 | 1 to 10 | CCn1cnc2c1c(=O)n(CCCCC(O)(CC)CC)c(=O)n2C [Embodiment 42, 7-Ethyl-1-(5-ethyl-5-hydroxyheptyl)-3-methyl-1H-purine-2,6(3H,7H)-dione]
7 | 10 to 50 | Cc1sc(C(C)(O)C(F)(F)F)nc1Cn1c(=O)c2c(ncn2C)n(C)c1=O (stereo not drawn) [Embodiment 34]
8 | 10 to 50 | Cn1cnc2c1c(=O)n(CC1CC(O)(C(F)(F)F)C1)c(=O)n2C (stereo not drawn) [Embodiment 5]
9 | 10 to 50 | Cc1nc(C(C)(O)C(F)(F)F)sc1CCn1c(=O)c2c(ncn2C)n(C)c1=O (stereo not drawn) [Embodiment 36, 3,7-Dimethyl-1-(2-(4-methyl-2-(1,1,1-trifluoro-2-hydroxypropan-2-yl)thiazol-5-yl)ethyl)-1H-purine-2,6-(3H,7H)-dione]
10 | 1 to 10 | 3,7-Dimethyl-1-[[3-[2,2,2-trifluoro-1-hydroxy-1-(trifluoromethyl)ethyl]cyclobutyl]methyl]purine-2,6-dione [Embodiment 8 isomer 1]
11 | 10 to 50 | CC(C)n1cnc2c1c(=O)n(CC1CCC(O)(C(F)(F)F)CC1)c(=O)n2C (stereo not drawn) [Embodiment 48]
12 | 10 to 50 | Cn1c(=O)n(Cc2ccc(C(C)(O)C(F)(F)F)cn2)c(=O)c2c1ncn2CC1CC1 (stereo not drawn) [Embodiment 56]
13 | 1 to 10 | CCC1(O)CCCC(CCn2c(=O)c3c(ncn3C)n(C)c2=O)C1 (stereo not drawn) [Embodiment 22, 1-(2-(3-Ethyl-3-hydroxycyclohexyl)ethyl)-3,7-dimethyl-1H-purine-2,6(3H,7H)-dione]
14 | 1 to 10 | Cn1cnc2c1c(=O)n(CCC1CCC(O)(C(F)(F)F)CC1)c(=O)n2C (single isomer, unassigned) [Embodiment 15 isomer 1]
15 | 10 to 50 | Cn1c(=O)n(CC2(C)CCC(O)(C(F)(F)F)CC2)c(=O)c2c1ncn2CC1CC1 (stereo not drawn) [Embodiment 53]
16 | 10 to 50 | 3,7-Dimethyl-1-[[3-[2,2,2-trifluoro-1-hydroxy-1-(trifluoromethyl)ethyl]cyclobutyl]methyl]purine-2,6-dione [Embodiment 8 isomer 2]
17 | 10 to 50 | Cn1cnc2c1c(=O)n(CC1CC(C(C)(O)C(F)(F)F)C1)c(=O)n2C (single isomer, unassigned) [Embodiment 9 isomer 1]

The next lines start with the compound.

Row | Compound | IC50 [µM]
18 | Cn1cnc2c1c(=O)n(Cc1cc(C(O)(C(F)(F)F)C(F)(F)F)no1)c(=O)n2C [Embodiment 31] | 10 to 50
19 | COCC1(Cn2c(=O)c3c(ncn3CC3CC3)n(C)c2=O)CCC(O)(C(F)(F)F)CC1 (stereo not drawn) [Embodiment 52] | 10 to 50
20 | Cn1c(=O)n(CCCCC(C)(O)C(F)(F)F)c(=O)c2c1ncn2C1CC1 (stereo not drawn) [Embodiment 47, 7-Cyclopropyl-3-methyl-1-(6,6,6-trifluoro-5-hydroxy-5-methylhexyl)-1H-purine-2,6(3H,7H)-dione] | 10 to 50
21 | Cn1cnc2c1c(=O)n(CCCCC1(O)CC1)c(=O)n2C [Embodiment 3, 1-(4-(1-Hydroxycyclopropyl)butyl)-3,7-dimethyl-1H-purine-2,6(3H,7H)-dione] | 10 to 50
22 | Cn1c(=O)n(CC2CCC(C)(O)CC2)c(=O)c2c1ncn2CC(F)(F)F (single isomer, unassigned) [Embodiment 46 isomer 2] | 10 to 50
23 | Cn1c(=O)n(CC2CCC(O)(C(F)(F)F)CC2)c(=O)c2c1ncn2CC1CC1 (single isomer, unassigned) [Embodiment 50 isomer 1, 7-(Cyclopropylmethyl)-1-((4-hydroxy-4-(trifluoromethyl)cyclohexyl)methyl)-3-methyl-1H-purine-2,6(3H,7H)-dione] | 10 to 50
24 | Cc1sc(C(C)(O)C(F)(F)F)nc1Cn1c(=O)c2c(ncn2CC2CC2)n(C)c1=O (stereo not drawn) [Embodiment 54, 7-(Cyclopropylmethyl)-3-methyl-1-((5-methyl-2-(1,1,1-trifluoro-2-hydroxypropan-2-yl)thiazol-4-yl)methyl)-1H-purine-2,6-(3H,7H)-dione] | 1 to 10
25 | CCn1cnc2c1c(=O)n(CCCCC(C)(O)C(F)(F)F)c(=O)n2C (stereo not drawn) [Embodiment 43, 7-Ethyl-3-methyl-1-(6,6,6-trifluoro-5-hydroxy-5-methylhexyl)-1H-purine-2,6(3H,7H)-dione] | 10 to 50
26 | Cn1cnc2c1c(=O)n(Cc1cnc(C(C)(O)C(F)(F)F)s1)c(=O)n2C (stereo not drawn) [Embodiment 35, 3,7-Dimethyl-1-((2-(1,1,1-trifluoro-2-hydroxypropan-2-yl)thiazol-5-yl)methyl)-1H-purine-2,6-(3H,7H)-dione] | 10 to 50
27 | Cn1cnc2c1c(=O)n(C[C@H]1CC[C@H](C(C)(O)C(F)(F)F)CC1)c(=O)n2C (stereo partly drawn) [Embodiment 19, 3,7-Dimethyl-1-[[trans-4-(2,2,2-trifluoro-1-hydroxy-1-methyl-ethyl)cyclohexyl]methyl]purine-2,6-dione] | 10 to 50
28 | CCC(O)(CC)C1CCC(Cn2c(=O)c3c(ncn3C)n(C)c2=O)CC1 (stereo not drawn) [Embodiment 18, 1-((4-(3-Hydroxypentan-3-yl)-cyclohexyl)methyl)-3,7-dimethyl-1H-purine-2,6(3H,7H)-dione] | 1 to 10
29 | Cn1cnc2c1c(=O)n(Cc1csc(C(C)(O)C(F)(F)F)n1)c(=O)n2C (stereo not drawn) [Embodiment 33, 3,7-Dimethyl-1-((2-(1,1,1-trifluoro-2-hydroxypropan-2-yl)thiazol-4-yl)methyl)-1H-purine-2,6-(3H,7H)-dione] | 10 to 50
30 | CC(C)Cn1cnc2c1c(=O)n(CC1CCC(O)(C(F)(F)F)CC1)c(=O)n2C (stereo not drawn) [Embodiment 57, 1-((4-Hydroxy-4-(trifluoromethyl)cyclohexyl)methyl)-7-isobutyl-3-methyl-1H-purine-2,6(3H,7H)-dione] | 1 to 10
31 | Cn1cnc2c1c(=O)n(C[C@H]1CC[C@H](C3(O)CC3)CC1)c(=O)n2C [Embodiment 21, 1-[[trans-4-(1-hydroxycyclopropyl)cyclohexyl]methyl]-3,7-dimethylpurine-2,6-dione] | 10 to 50

System: not listed separately
Test: Pharmacokinetic evaluation of compounds in SD rats
Assay type: in vivo, Sprague Dawley rats
Conditions: male, Sprague-Dawley, rat, plasma, single intravenous injection and oral administration, read-out: Bioavailability F
Procedure: Experimental objective: The pharmacokinetics of test compounds in SD rats.
Sprague Dawley rats (male, 200-300 g, 7-9 weeks old, Shanghai Slack).
The pharmacokinetic characteristics of rodents after intravenous and oral administration of the compounds were tested according to the standard protocol, in the experiment, the candidate compound was formulated into a clear solution, and the rats were given single intravenous injection and oral administration. Intravenous and oral solvents are a certain proportion of hydroxypropyl βcyclodextrin aqueous solution or physiological saline solution. Blood samples within 24 hours were collected, centrifuged (3000 g) for 15 minutes, the supernatant were separated to obtain the plasma samples, the protein was precipitated by adding a 4 times volume of acetonitrile solution that containing the internal standard, centrifuged and the supernatant was then centrifuged after adding equal volume of water, then the supernatant was injected, the plasma concentration was quantitatively analyzed by LC-MS/MS analysis, and pharmacokinetics parameters such as peak concentration, peak time, clearance rate, half-life, drug area under the curve, bioavailability etc. are calculated.

Row | bioavailability [%] | Compound
32 | 42.6 | CC(C)Cn1cnc2c1c(=O)n(CC1CCC(O)(C(F)(F)F)CC1)c(=O)n2C (single isomer, unassigned) [Embodiment 58 isomer 2, 1-((4-Hydroxy-4-(trifluoromethyl)cyclohexyl)methyl)-7-isobutyl-3-methyl-1H-purine-2,6(3H,7H)-dione]

Same assay, conditions: male, Sprague-Dawley, rat, plasma, single intravenous injection and oral administration, read-out: Clearance rate

Row | clearance [mL/min/kg] | Compound
33 | 71.6 | CC(C)Cn1cnc2c1c(=O)n(CC1CCC(O)(C(F)(F)F)CC1)c(=O)n2C (single isomer, unassigned) [Embodiment 58 isomer 2, 1-((4-Hydroxy-4-(trifluoromethyl)cyclohexyl)methyl)-7-isobutyl-3-methyl-1H-purine-2,6(3H,7H)-dione]

Same assay, conditions: male, Sprague-Dawley, rat, plasma, single intravenous injection and oral administration, read-out: Concentration integration AUC

Row | AUC [µM·h] | Compound
34 | 2.49 | CC(C)Cn1cnc2c1c(=O)n(CC1CCC(O)(C(F)(F)F)CC1)c(=O)n2C (single isomer, unassigned) [Embodiment 58 isomer 2, 1-((4-Hydroxy-4-(trifluoromethyl)cyclohexyl)methyl)-7-isobutyl-3-methyl-1H-purine-2,6(3H,7H)-dione]

Same assay, conditions: male, Sprague-Dawley, rat, plasma, single intravenous injection and oral administration, read-out: Half-life T1/2 (converted)

Row | half-life [min] | Compound
35 | 33.6 | CC(C)Cn1cnc2c1c(=O)n(CC1CCC(O)(C(F)(F)F)CC1)c(=O)n2C (single isomer, unassigned) [Embodiment 58 isomer 2, 1-((4-Hydroxy-4-(trifluoromethyl)cyclohexyl)methyl)-7-isobutyl-3-methyl-1H-purine-2,6(3H,7H)-dione]

Same assay, conditions: single intravenous injection and oral administration

Row | Compound | Bioavailability F [%] | Clearance rate [mL/min/kg] | Concentration integration AUC [µM·h] | Half-life T1/2 [min]
36 | Cn1cnc2c1c(=O)n(C[C@H]1CC[C@](O)(C(F)(F)F)CC1)c(=O)n2C [Embodiment 12, 1-(((1S,4S)-4-Hydroxy-4-(trifluoromethyl)cyclohexyl)methyl)-3,7-dimethyl-1H-purine-2,6(3H,7H)-dione] | 41.2 | 32.7 | 5.863 | 187
